What was measured:
rice = assay: Test C flooded paddy test; type: in vivo, Oryza sativa; settings: Flood
Method in brief: (§1)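 Flooded 3 cm over soil; compound into paddy water; depth kept constant. Greenhouse 13–15 d.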

johnsongrass = assay: Test C pre-/postemergence test; type: in vivo, Sorghum halepense; settings: for Plant response rating, Johnsongrass: 31 g ai/ha, scale 0 to 100 (0 no effect, 100 complete control)
Method in brief: (§2)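 Test chemicals were formulated with surfactant in a non-phytotoxic solvent and sprayed both on freshly planted seeds (preemergence) and on 1- to 4-leaf plants of 2–18 cm (postemergence). Flooded-paddy pots received compound directly into 3 cm of standing water, maintained for the test.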

duck salad = assay: Test C flooded paddy test; type: in vivo, Heteranthera limosa; settings: Flood
Method in brief: as §1

lambsquarters = assay: Test C pre-/postemergence test; type: in vivo, Chenopodium album; settings: for Plant response rating, Lambsquarters: 31 g ai/ha, scale 0 to 100 (0 no effect, 100 complete control)
Method in brief: as §2

green foxtail = assay: Test C pre-/postemergence test; type: in vivo, Setaria viridis; settings: for Plant response rating, Foxtail, Green: 31 g ai/ha, scale 0 to 100 (0 no effect, 100 complete control)
Method in brief: as §2

crabgrass = assay: Test C pre-/postemergence test; type: in vivo, Digitaria sanguinalis; settings: for Plant response rating, Crabgrass, Large: 31 g ai/ha, scale 0 to 100 (0 no effect, 100 complete control)
Method in brief: as §2

redroot pigweed = assay: Test A pre-/postemergence greenhouse test; type: in vivo, Amaranthus retroflexus; settings: for Plant response rating, Pigweed: 0 to 100 scale where 0 is no effect and 100 is complete control; for Pigweed plant response rating: 0 to 100 scale
Method in brief: (§3)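 Seeds sown in a loam soil–sand blend got a preemergence directed soil spray of compound in a non-phytotoxic solvent mixture containing surfactant. Postemergence sprays of the same formulation went at the same time onto plants 2–10 cm tall at the one- to two-leaf stage. Injury was scored visually against untreated controls after about ten days in the greenhouse.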

eastern black nightshade = assay: Test C pre-/postemergence test; type: in vivo, Solanum ptycanthum
Method in brief: as §2

velvetleaf [1] = assay: Test C pre-/postemergence test; type: in vivo, Abutilon theophrasti; settings: for Plant response rating, Velvetleaf: 31 g ai/ha, scale 0 to 100 (0 no effect, 100 complete control)
Method in brief: as §2

barnyardgrass = assay: Test A pre-/postemergence greenhouse test; type: in vivo, Echinochloa crus-galli; settings: for Plant response rating, Barnyardgrass: 0 to 100 scale where 0 is no effect and 100 is complete control; for Barnyardgrass plant response rating: 0 to 100 scale
Method in brief: as §3

Surinam grass = assay: Test C pre-/postemergence test; type: in vivo, Brachiaria decumbens; settings: for Plant response rating, Surinam Grass: 31 g ai/ha, scale 0 to 100 (0 no effect, 100 complete control)
Method in brief: as §2

cocklebur = assay: Test C pre-/postemergence test; type: in vivo, Xanthium strumarium; settings: for Plant response rating, Cocklebur: 31 g ai/ha, scale 0 to 100 (0 no effect, 100 complete control)
Method in brief: as §2

giant foxtail = assay: Test C pre-/postemergence test; type: in vivo, Setaria faberii; settings: for Plant response rating, Foxtail, Giant: 31 g ai/ha, scale 0 to 100 (0 no effect, 100 complete control)
Method in brief: as §2

downy brome = assay: Test C pre-/postemergence test; type: in vivo, Bromus tectorum; settings: for Bromegrass, Downy plant response rating: preemergence, scale 0 (no effect) to 100 (complete control)
Method in brief: as §2

common ragweed = assay: Test C pre-/postemergence test; type: in vivo, Ambrosia elation
Method in brief: as §2

wild oat = assay: Test C pre-/postemergence test; type: in vivo, Avena fatua; settings: for Plant response rating, Oat, Wild: 31 g ai/ha, scale 0 to 100 (0 no effect, 100 complete control)
Method in brief: as §2

velvetleaf [2] = assay: Test A pre-/postemergence greenhouse test; type: in vivo, Abutilon theophrasti; settings: for Plant response rating, Velvetleaf: 0 to 100 scale where 0 is no effect and 100 is complete control; for Velvetleaf plant response rating: 0 to 100 scale
Method in brief: as §3

kochia = assay: Test C pre-/postemergence test; type: in vivo, Kochia scoparia; settings: for Plant response rating, Kochia: 31 g ai/ha, scale 0 to 100 (0 no effect, 100 complete control)
Method in brief: as §2

[3] = 31 g ai/ha, scale 0 to 100 (0 no effect, 100 complete control)
[4] = 62 g ai/ha, scale 0 to 100 (0 no effect, 100 complete control)
[5] = 125 g ai/ha, scale 0 to 100, 0 no effect, 100 complete control, 13 to 15 days
[6] = 250 g ai/ha, scale 0 to 100, 0 no effect, 100 complete control, 13 to 15 days
[7] = 62 g ai/ha, Preemergence, scale 0 to 100
[8] = 125 g ai/ha, preemergence, scale 0 (no effect) to 100 (complete control)
[9] = preemergence, 250 g ai/ha, scale 0 (no effect) to 100 (complete control)
[10] = Postemergence, 500 g ai/ha, 0 is no effect, 100 is complete control
[11] = Preemergence, 125 g ai/ha, 0 no effect, 100 complete control
[12] = Preemergence, 31 g ai/ha, scale 0 to 100 (0 no effect, 100 complete control)
[13] = Preemergence, 500 g ai/ha, 0 no effect, 100 complete control

Cn1nc(C(F)(F)F)c(C[S+]([O-])c2ccc(Cl)c[n+]2[O-])c1OCC(F)F (centres unmarked) [Compound 85]
Plant response rating, Rice (rice; [3]): 0
Plant response rating, Rice (rice; [4]): 0
Plant response rating, Rice (rice; [5]): 30
Plant response rating, Rice (rice; [6]): 50
Johnsongrass plant response rating (johnsongrass; [7]): 85
Johnsongrass plant response rating (johnsongrass; [8]): 100
Plant response rating, Johnsongrass (johnsongrass; Preemergence): 85
Johnsongrass plant response rating (johnsongrass; [9]): 100
Plant response rating, Ducksalad (duck salad; [3]): 35
Plant response rating, Ducksalad (duck salad; [4]): 45
Plant response rating, Ducksalad (duck salad; [5]): 75
Plant response rating, Ducksalad (duck salad; [6]): 80
Lambsquarters plant response rating (lambsquarters; [7]): 100
Lambsquarters plant response rating (lambsquarters; [8]): 100
Plant response rating, Lambsquarters (lambsquarters; Preemergence): 100
Lambsquarters plant response rating (lambsquarters; [9]): 100
Foxtail, Green plant response rating (green foxtail; [7]): 100
Foxtail, Green plant response rating (green foxtail; [8]): 100
Plant response rating, Foxtail, Green (green foxtail; Preemergence): 100
Foxtail, Green plant response rating (green foxtail; [9]): 100
Crabgrass, Large plant response rating (crabgrass; [7]): 85
Plant response rating, Crabgrass, Large (crabgrass; Preemergence): 80
Crabgrass, Large plant response rating (crabgrass; [9]): 100
Plant response rating, Pigweed (redroot pigweed; Postemergence, 125 g ai/ha): 60
Pigweed plant response rating (redroot pigweed; [10]): 90
Pigweed plant response rating (redroot pigweed; [11]): 70
Plant response rating, Pigweed (redroot pigweed; Preemergence, 500 g ai/ha): 90
Nightshade plant response rating (eastern black nightshade; [7]): 85
Nightshade plant response rating (eastern black nightshade; [8]): 100
Nightshade plant response rating (eastern black nightshade; [9]): 100
Velvetleaf plant response rating (velvetleaf [1]; [7]): 70
Velvetleaf plant response rating (velvetleaf [1]; [8]): 95
Plant response rating, Velvetleaf (velvetleaf [1]; Preemergence): 50
Velvetleaf plant response rating (velvetleaf [1]; [9]): 100
Plant response rating, Barnyardgrass (barnyardgrass; Postemergence, 125 g ai/ha): 70
Barnyardgrass plant response rating (barnyardgrass; [10]): 90
Barnyardgrass plant response rating (barnyardgrass; [11]): 70
Plant response rating, Barnyardgrass (barnyardgrass; Preemergence, 500 g ai/ha): 100
Surinam Grass plant response rating (Surinam grass; [7]): 95
Surinam Grass plant response rating (Surinam grass; [8]): 100
Plant response rating, Surinam Grass (Surinam grass; Preemergence): 85
Surinam Grass plant response rating (Surinam grass; [9]): 100
Cocklebur plant response rating (cocklebur; [7]): 0
Cocklebur plant response rating (cocklebur; [8]): 0
Plant response rating, Cocklebur (cocklebur; Preemergence): 0
Cocklebur plant response rating (cocklebur; [9]): 0
Foxtail, Giant plant response rating (giant foxtail; [7]): 100
Plant response rating, Foxtail, Giant (giant foxtail; Preemergence): 85
Foxtail, Giant plant response rating (giant foxtail; [9]): 100
Bromegrass, Downy plant response rating (downy brome; 125 g ai/ha): 70
Bromegrass, Downy plant response rating (downy brome; 250 g ai/ha): 100
Ragweed plant response rating (common ragweed; [7]): 100
Ragweed plant response rating (common ragweed; [8]): 100
Plant response rating, Ragweed (common ragweed; [12]): 100
Ragweed plant response rating (common ragweed; [9]): 100
Oat, Wild plant response rating (wild oat; [7]): 80
Oat, Wild plant response rating (wild oat; [8]): 85
Plant response rating, Oat, Wild (wild oat; Preemergence): 80
Oat, Wild plant response rating (wild oat; [9]): 100
Plant response rating, Velvetleaf (velvetleaf [2]; Postemergence, 125 g ai/ha): 50
Velvetleaf plant response rating (velvetleaf [2]; [10]): 90
Velvetleaf plant response rating (velvetleaf [2]; [11]): 50
Velvetleaf plant response rating (velvetleaf [2]; [13]): 100
Kochia plant response rating (kochia; [7]): 100
Kochia plant response rating (kochia; [8]): 100
Plant response rating, Kochia (kochia; Preemergence): 100
Kochia plant response rating (kochia; [9]): 100

CC(Oc1c(C[S+]([O-])c2ccc(Cl)c[n+]2[O-])c(C(F)(F)F)nn1C)C(F)(F)F (centres unmarked) [Compound 87]
Plant response rating, Rice (rice; [4]): 30
Plant response rating, Rice (rice; [6]): 90
Johnsongrass plant response rating (johnsongrass; [7]): 100
Johnsongrass plant response rating (johnsongrass; [8]): 100
Plant response rating, Johnsongrass (johnsongrass; Preemergence): 90
Johnsongrass plant response rating (johnsongrass; [9]): 100
Plant response rating, Ducksalad (duck salad; [4]): 50
Plant response rating, Ducksalad (duck salad; [6]): 100
Lambsquarters plant response rating (lambsquarters; [7]): 85
Lambsquarters plant response rating (lambsquarters; [8]): 100
Plant response rating, Lambsquarters (lambsquarters; Preemergence): 60
Lambsquarters plant response rating (lambsquarters; [9]): 100
Foxtail, Green plant response rating (green foxtail; [7]): 100
Foxtail, Green plant response rating (green foxtail; [8]): 100
Plant response rating, Foxtail, Green (green foxtail; Preemergence): 95
Foxtail, Green plant response rating (green foxtail; [9]): 100
Crabgrass, Large plant response rating (crabgrass; [7]): 95
Crabgrass, Large plant response rating (crabgrass; [8]): 100
Plant response rating, Crabgrass, Large (crabgrass; Preemergence): 80
Crabgrass, Large plant response rating (crabgrass; [9]): 100
Plant response rating, Pigweed (redroot pigweed; Postemergence, 125 g ai/ha): 50
Pigweed plant response rating (redroot pigweed; [10]): 100
Pigweed plant response rating (redroot pigweed; [11]): 90
Plant response rating, Pigweed (redroot pigweed; Preemergence, 500 g ai/ha): 100
Nightshade plant response rating (eastern black nightshade; [7]): 80
Nightshade plant response rating (eastern black nightshade; [8]): 95
Plant response rating, Nightshade (eastern black nightshade; [12]): 80
Nightshade plant response rating (eastern black nightshade; [9]): 100
Velvetleaf plant response rating (velvetleaf [1]; [7]): 5
Velvetleaf plant response rating (velvetleaf [1]; [8]): 70
Plant response rating, Velvetleaf (velvetleaf [1]; Preemergence): 0
Velvetleaf plant response rating (velvetleaf [1]; [9]): 95
Plant response rating, Barnyardgrass (barnyardgrass; Postemergence, 125 g ai/ha): 80
Barnyardgrass plant response rating (barnyardgrass; [10]): 90
Barnyardgrass plant response rating (barnyardgrass; [11]): 90
Plant response rating, Barnyardgrass (barnyardgrass; Preemergence, 500 g ai/ha): 100
Surinam Grass plant response rating (Surinam grass; [7]): 95
Surinam Grass plant response rating (Surinam grass; [8]): 95
Plant response rating, Surinam Grass (Surinam grass; Preemergence): 80
Surinam Grass plant response rating (Surinam grass; [9]): 98
Cocklebur plant response rating (cocklebur; [7]): 0
Cocklebur plant response rating (cocklebur; [8]): 20
Plant response rating, Cocklebur (cocklebur; Preemergence): 0
Cocklebur plant response rating (cocklebur; [9]): 40
Foxtail, Giant plant response rating (giant foxtail; [7]): 95
Foxtail, Giant plant response rating (giant foxtail; [8]): 100
Plant response rating, Foxtail, Giant (giant foxtail; Preemergence): 85
Foxtail, Giant plant response rating (giant foxtail; [9]): 100
Plant response rating, Bromegrass, Downy (downy brome; [12]): 80
Bromegrass, Downy plant response rating (downy brome; 250 g ai/ha): 100
Ragweed plant response rating (common ragweed; [8]): 70
Ragweed plant response rating (common ragweed; [9]): 80
Oat, Wild plant response rating (wild oat; [7]): 90
Oat, Wild plant response rating (wild oat; [8]): 90
Plant response rating, Oat, Wild (wild oat; Preemergence): 80
Oat, Wild plant response rating (wild oat; [9]): 100
Plant response rating, Velvetleaf (velvetleaf [2]; Postemergence, 125 g ai/ha): 70
Velvetleaf plant response rating (velvetleaf [2]; [10]): 80
Velvetleaf plant response rating (velvetleaf [2]; [11]): 80
Velvetleaf plant response rating (velvetleaf [2]; [13]): 100
Kochia plant response rating (kochia; [7]): 75
Kochia plant response rating (kochia; [8]): 80
Plant response rating, Kochia (kochia; Preemergence): 50
Kochia plant response rating (kochia; [9]): 95

— patent publication US20100298141A1, “SUBSTITUTED PYRIDINE N-OXIDE HERBICIDES” (E. I. DU PONT DE NEMOURS AND COMPANY, priority 2007, published 2010)
